From patent US20250353816A1, “QUINOLINES AS MODULATORS OF POLRMT” (Pretzel Therapeutics, Inc., priority 2024, published 2025)

Target: POLRMT (Homo sapiens (Human), UniProt O00411)
Assay: homogeneous TR-FRET assay of mitochondrial transcription (inhibition of POLRMT)
Assay type: biochemical
Details: 7.5 nM POLRMT, 15 nM TFB2M, 30 nM TFAM, 60 minutes at 37° C.
Method: The inhibitory activity of the compounds of the present invention against POLRMT were determined by assays based on Bergbrede, T., et al., “An adaptable high-throughput technology enabling the identification of specific transcription modulators,” SLAC Discov., 22, 378-386 (2017).
The ability of some compounds of the present invention to inhibit POLRMT were determined in a homogeneous TR-FRET Assay using high-throughput screening in a 384-well plate format. This method is used to monitor the activity of mitochondrial transcription through measurement of its product, a 407 bp long RNA transcript. Detection of the product is facilitated by hybridization of two DNA-oligonucleotide probes to specific and adjacent sequences within the RNA product sequence. Upon annealing of the probes, two fluorophores are coupled directly to an acceptor nucleotide probe (ATTO647, 5′), or introduced via a coupled streptavidin with a biotinylated donor nucleotide probe (Europium cryptate) that is brought into sufficient proximity to serve as a fluorescence-donor-acceptor pair. Thus, a FRET signal at 665 nm is generated upon excitation at 340 nm.
Proteins used as transcription factors (POLRMT: NP_005026.3, TFAM: NP_003192.1, TFB2M: NP_071761.1) are diluted from their stocks to working concentrations of 1 μM, 20 μM and 4 μM respectively, in a dilution buffer containing 20 mM Tris-HCl (pH 8.0), 200 mM NaCl, 10% (v/v) glycerol, 1 mM Dithiothreitol (DTT), 0.5 mM EDTA.
DNA template is a pUC18 plasmid with the mitochondrial light strand promotor sequence (1-477) cloned between HindIII and BamHI sites. The DNA template is restriction linearized proximal to the promotor 3′-end (pUC-LSP).
The reaction mixture (10 uL) containing 7.5 nM POLRMT, 15 nM of TFB2M, 30 nM of TFAM, 0.5 nM of DNA template and 500 μM nucleotide triphosphate mix (NTPs) in a reaction buffer (containing 10 mM Tris-HCl (pH 7.5), 10 mM MgCl2, 40 mM NaCl, 10 mM DTT, 0.005% (w/v) Tween-20, 160 units/ml Rnase inhibitor and 0.1 mg/mL BSA) are dispensed to compounds in microplates, using a Thermo Multidrop® dispenser, and incubated at 37° C. in a VWR INCU-Line incubator for 60 minutes after mixing. No nucleotide triphosphate mix is added to negative control samples. Microplates with compounds to be tested in the assay are prepared from 10 mM compound stocks in 100% DMSO, equal amounts of DMSO without any compound are added to positive control and negative control samples.
During the incubation, a mix of the detection reagents is prepared in a buffer such that the enzymatic reaction is terminated due to chelating of Mg-ions and increased ionic strength, containing 50 mM Tris-HCl (pH 7.5), 700 mM NaCl, 20 mM EDTA, and 0.01% (w/v) Tween-20. Europium-streptavidin is pre-incubated with a 200-fold molar excess of a random sequence oligonucleotide to block unspecific binding of oligo, for two hours at ambient temperature in the dark. Afterwards, the blocked Europium-streptavidin is kept on ice until use.
At the end of the enzymatic reaction time, 5 μL detection oligo mix in the detection buffer is added, and assay plates are mixed and kept at ambient temperature for one hour, protected from light. The concentration of the Acceptor nucleotide oligo (e.g., ATTO647N-5′-[…]-3′ (SEQ ID NO: 1)) and Donor nucleotide oligo (e.g., bio-5′-AACACATCTCT(-bio)GCCAAACCCCA-bio-3′ (SEQ ID NO: 2)) in each assay well is 1 nM, and 3 nM, respectively.
After incubation with oligo mix, 5 μL of pre-blocked Europium-streptavidin reagent is dispensed to each assay well, assay plates are again mixed and kept at ambient temperature for one hour, protected from light.
The generated signal is measured with BMG Pherastar microtiter plate reader with a TRF light unit, using excitation at 340 nm, an integration time of 200 μs, and a delay time of […], before detection at 620 nm and 665 nm. The ratio of donor- and acceptor-fluorescence is used as a measure of the generated transcript product (i.e. enzymatic activity).

Sequence of POLRMT (O00411 42-1230): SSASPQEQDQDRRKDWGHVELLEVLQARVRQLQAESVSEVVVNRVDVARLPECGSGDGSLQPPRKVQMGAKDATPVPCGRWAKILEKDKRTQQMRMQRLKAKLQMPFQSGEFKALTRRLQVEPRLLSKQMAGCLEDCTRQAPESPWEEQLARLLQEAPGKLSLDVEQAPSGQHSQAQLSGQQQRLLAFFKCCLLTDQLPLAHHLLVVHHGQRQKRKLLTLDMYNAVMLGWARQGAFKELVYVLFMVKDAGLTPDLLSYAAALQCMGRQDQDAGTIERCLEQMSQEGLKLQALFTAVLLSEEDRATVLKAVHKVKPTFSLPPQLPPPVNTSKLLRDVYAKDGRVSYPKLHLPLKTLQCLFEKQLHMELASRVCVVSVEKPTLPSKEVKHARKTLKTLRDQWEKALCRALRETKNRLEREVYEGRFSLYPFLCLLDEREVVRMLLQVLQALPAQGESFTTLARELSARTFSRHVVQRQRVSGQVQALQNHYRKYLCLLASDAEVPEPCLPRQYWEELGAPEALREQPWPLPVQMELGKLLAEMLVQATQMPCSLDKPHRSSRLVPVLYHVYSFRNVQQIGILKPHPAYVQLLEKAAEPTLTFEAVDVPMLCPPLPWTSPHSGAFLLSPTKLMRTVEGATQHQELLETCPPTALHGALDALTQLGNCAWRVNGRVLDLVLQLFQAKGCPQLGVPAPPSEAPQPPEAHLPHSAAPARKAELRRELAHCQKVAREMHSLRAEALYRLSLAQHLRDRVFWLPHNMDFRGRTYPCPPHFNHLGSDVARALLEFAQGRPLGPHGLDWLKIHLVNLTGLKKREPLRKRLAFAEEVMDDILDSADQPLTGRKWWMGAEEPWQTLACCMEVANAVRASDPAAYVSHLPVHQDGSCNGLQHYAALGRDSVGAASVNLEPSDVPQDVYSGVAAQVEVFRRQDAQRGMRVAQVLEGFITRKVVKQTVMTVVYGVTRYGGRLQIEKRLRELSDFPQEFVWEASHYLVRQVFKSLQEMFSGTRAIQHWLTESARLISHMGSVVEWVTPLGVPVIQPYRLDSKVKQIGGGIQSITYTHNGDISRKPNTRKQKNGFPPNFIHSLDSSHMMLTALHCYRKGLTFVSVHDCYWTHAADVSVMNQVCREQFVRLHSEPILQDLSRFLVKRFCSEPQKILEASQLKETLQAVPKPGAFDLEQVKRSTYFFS

SMILES | IC50 [µM]
Cc1ccccc1-c1ccnc2cc(NC(C)C(=O)N3CCCCC3)ccc12 (centres unmarked) [Example 45, 1-(piperidin-1-yl)-2-((4-(o-tolyl)quinolin-7-yl)amino)propan-1-one] | 4
Cc1ccccc1-c1ccnc2cc(CCO)ccc12 [Example 17, 2-(4-(o-tolyl)quinolin-7-yl)ethan-1-ol] | 10
CC(=O)Nc1ccc2c(-c3ccccc3C)ccnc2c1 [Example 11, N-(4-(o-tolyl)quinolin-7-yl)acetamide] | 10
Cc1ccccc1-c1ccnc2cc(NC(C)C(=O)N3CCOCC3)ccc12 (single isomer, unassigned) [Example 50, 1-morpholino-2-((4-(o-tolyl)quinolin-7-yl)amino)propan-1-one] | 2
COCc1ccc2c(-c3ccccc3C)ccnc2c1 [Example 19, 7-(methoxymethyl)-4-(o-tolyl)quinoline] | 5
Cc1ccccc1-c1ccnc2cc(NC(C)C(=O)N3CCOCC3)ccc12 (single isomer, unassigned) [Example 51, 1-morpholino-2-((4-(o-tolyl)quinolin-7-yl)amino)propan-1-one] | > 100
CC(=O)N1CCN(C(=O)Cc2ccc3c(-c4ccccc4C)ccnc3c2)CC1 [Example 40, 1-(4-acetylpiperazin-1-yl)-2-(4-(o-tolyl)quinolin-7-yl)ethan-1-one] | > 100
Cc1ccccc1-c1ccnc2cc(C(C)OCC(=O)N(C)C)ccc12 (centres unmarked) [Example 55, N,N-dimethyl-2-(1-(4-(o-tolyl)quinolin-7-yl)ethoxy)acetamide] | > 100
Cc1ccccc1-c1ccnc2cc(CNC(=O)OC(C)(C)C)ccc12 [Example 12, tert-butyl ((4-(o-tolyl)quinolin-7-yl)methyl)carbamate] | 15
Cc1ccccc1-c1ccnc2cc(CC(=O)NC3CC3)ccc12 [Example 30, N-cyclopropyl-2-(4-(o-tolyl)quinolin-7-yl)acetamide] | 91
COC(C)c1ccc2c(-c3ccccc3C)ccnc2c1 (centres unmarked) [Example 27, 7-(1-methoxyethyl)-4-(o-tolyl)quinoline] | 8
Cc1ccccc1-c1ccnc2cc(CNC(=O)C3CCCC3)ccc12 [Example 13, N-((4-(o-tolyl)quinolin-7-yl)methyl)cyclopentanecarboxamide] | 29
Cc1ccccc1-c1ccnc2cc(CC(C)C(=O)N3CCCCC3)ccc12 (single isomer, unassigned) [Example 34, 2-methyl-1-(piperidin-1-yl)-3-(4-(o-tolyl)quinolin-7-yl)propan-1-one] | 2
CNC(=O)COC(C)c1ccc2c(-c3ccccc3C)ccnc2c1 (centres unmarked) [Example 57, N-methyl-2-(1-(4-(o-tolyl)quinolin-7-yl)ethoxy)acetamide] | > 100
Cc1ccccc1-c1ccnc2cc(CN(C)S(C)(=O)=O)ccc12 [Example 32, N-methyl-N-((4-(o-tolyl)quinolin-7-yl)methyl)methanesulfonamide] | 24
Cc1ccccc1-c1ccnc2cc(C(=O)N3CCOCC3)ccc12 [Example 7, morpholino-[4-(o-tolyl)-7-quinolyl]methanone] | > 100
Cc1ccccc1-c1ccnc2cc(NC(C)C(=O)N(C)C)ccc12 (single isomer, unassigned) [Example 49, N,N-dimethyl-2-((4-(o-tolyl)quinolin-7-yl)amino)propanamide] | 10
Cc1ccccc1-c1ccnc2cc(CC(N)=O)ccc12 [Example 42, 2-(4-(o-tolyl)quinolin-7-yl)acetamide] | > 100
Cc1ccccc1-c1ccnc2cc(CC(=O)N3CCOCC3)ccc12 [Example 36, 1-morpholino-2-(4-(o-tolyl)quinolin-7-yl)ethan-1-one] | > 100

SMILES | IC50 [µM]
Cc1ccccc1-c1ccnc2cc(CC(=O)N(C)C)ccc12 [Example 43, N,N-dimethyl-2-(4-(o-tolyl)quinolin-7-yl)acetamide] | > 100
CC(=O)N1CCN(C(=O)c2ccc3c(-c4ccccc4C)ccnc3c2)CC1 [Example 9, 1-(4-(4-(o-tolyl)quinoline-7-carbonyl)piperazin-1-yl)ethan-1-one] | > 100
Cc1ccccc1-c1ccnc2cc(CC(=O)NCC3CC3)ccc12 [Example 41, N-(cyclopropylmethyl)-2-(4-(o-tolyl)quinolin-7-yl)acetamide] | 91
Cc1ccccc1-c1ccnc2cc(C(=O)N(C)Cc3ccccc3)ccc12 [Example 5, N-benzyl-N-methyl-4-(o-tolyl)quinoline-7-carboxamide] | > 100
Cc1ccccc1-c1ccnc2cc(CN3CCN(C)CC3)ccc12 [Example 28, 7-((4-methylpiperazin-1-yl)methyl)-4-(o-tolyl)quinoline] | > 100
Cc1ccccc1-c1ccnc2cc(C#N)ccc12 [Example 33, 4-(o-tolyl)quinoline-7-carbonitrile] | 74
Cc1ccccc1-c1ccnc2cc(C(C)O)ccc12 (centres unmarked) [Example 18, 1-(4-(o-tolyl)quinolin-7-yl)ethan-1-ol] | 36
Cc1ccccc1-c1ccnc2cc(NC(C)C(=O)N3CCCCC3)ccc12 (single isomer, unassigned) [Example 53, 1-(piperidin-1-yl)-2-((4-(o-tolyl)quinolin-7-yl)amino)propan-1-one] | 3
CNC(=O)c1ccc2c(-c3ccccc3C)ccnc2c1 [Example 3, N-methyl-4-(o-tolyl)quinoline-7-carboxamide] | 26
Cc1ccccc1-c1ccnc2cc(CN3CCOCC3)ccc12 [Example 20, 4-((4-(o-tolyl)quinolin-7-yl)methyl)morpholine] | > 100
COC(=O)c1ccc2c(-c3ccccc3C)ccnc2c1 [Example 1, methyl 4-(o-tolyl)quinoline-7-carboxylate] | 3
Cc1ccccc1-c1ccnc2cc(CO)ccc12 [Example 10, (4-(o-tolyl)quinolin-7-yl)methanol] | 50
Cc1ccccc1-c1ccnc2cc(C(C)OCC(N)=O)ccc12 (centres unmarked) [Example 56, 2-(1-(4-(o-tolyl)quinolin-7-yl)ethoxy)acetamide] | > 100
Cc1ccccc1-c1ccnc2cc(C(C)CC(=O)N(C)C)ccc12 (single isomer, unassigned) [Example 38, N,N-dimethyl-3-(4-(o-tolyl)quinolin-7-yl)butanamide] | 37
Cc1ccccc1-c1ccnc2cc(CN3CCCC3)ccc12 [Example 26, 7-(pyrrolidin-1-ylmethyl)-4-(o-tolyl)quinoline] | > 100
Cc1ccccc1-c1ccnc2cc(NC(C)C(=O)N(C)C)ccc12 (single isomer, unassigned) [Example 48, N,N-dimethyl-2-((4-(o-tolyl)quinolin-7-yl)amino)propanamide] | > 100
Cc1ccccc1-c1ccnc2cc(C(=O)N3CCN(C)CC3)ccc12 [Example 8, (4-methylpiperazin-1-yl)-[4-(o-tolyl)-7-quinolyl]methanone] | > 100
Cc1ccccc1-c1ccnc2cc(C(C)CC(=O)N(C)C)ccc12 (single isomer, unassigned) [Example 37, N,N-dimethyl-3-(4-(o-tolyl)quinolin-7-yl)butanamide] | 79
Cc1ccccc1-c1ccnc2cc(CNS(=O)(=O)c3ccccc3)ccc12 [Example 14, N-((4-(o-tolyl)quinolin-7-yl)methyl)benzenesulfonamide] | 68
